Target: recombinant human ACC2 (Homo sapiens (Human), UniProt O00763)
Assay: Measurement of inhibitory activity on human ACC2 (MALDI-TOF MS, acetyl CoA to malonyl CoA conversion)
Assay type: biochemical
Conditions: Tables 155-159
Description: Preparation 1: Preparation of Recombinant Human ACC2
After a cDNA encoding human ACC2 (27 amino acid residue to 2458 amino acid residues from the N-terminus) was cloned from human kidney cDNA library (Clontech), human ACC2 gene containing His-tag sequence at 5′ terminus was inserted into pFastBac1 (Invitrogen). Recombinant baculovirus was generated using Bac-to-Bac baculovirus expression system (Invitrogen) according to the manufacturer's protocol. To express human ACC2, Sf-9 cells were infected with recombinant baculovirus. After infected cells were disrupted, the filtrated lysate was subjected to Ni-affinity chromatography and anion-exchange chromatography. The fractions containing human ACC2 protein were pooled as recombinant human ACC2 solution.
The Measurement of Inhibitory Activity on Human ACC1 and the ACC2
Recombinant human ACC1 and recombinant human ACC2, which were prepared by the method mentioned above, were preincubated with assay buffer solution (50 mM HEPES-KOH (pH 7.4), 10 mM magnesium chloride, 6-10 mM potassium citrate, 4 mM reduced form of glutathione, 1.5 mg/ml bovine serum albumin) for one hour. Then, 0.2 μL of each this invention compound solution (in DMSO) were dispensed to 384-well microplate, 5 μL of the preincubated enzyme solution and 5 μL of substrate solution (50 mM HEPES-KOH (pH 7.4), 1 mM ATP, 0.8 mM acetyl CoA and 25-50 mM potassium bicarbonate) were added to microplate. After centrifugation and shaking, the reaction mixtures were incubated in a humidified box at room temperature for 1 to 3 hours. After the incubation, the enzyme reactions were stopped by the addition of EDTA. Then, after the samples were cocrystallized with CHCA (α-cyano-4-hydroxy cinnamic acid) matrices on MALDI target plate, by using the matrix assist laser […] time-of-flight mass spectrometer (MALDI-TOF MS), samples were measured in reflector negative mode. Deprotonated ions of acetyl CoA (AcCoA) of substrate and malonyl CoA (MalCoA) of the reaction product were detected, then, the conversion rates of acetyl CoA to malonyl CoA was calculated by the intensity of [MalCoA-H]−/(Intensity of [MalCoA-H]−+Intensity of [AcCoA-H]−) using each signal strength. […] In addition, potassium citrate concentrations in assay buffer solution, potassium hydrogen carbonate concentrations in substrate solution and incubation time were adjusted by each lot of enzyme.

Chain of recombinant human ACC2 (O00763 27-2458): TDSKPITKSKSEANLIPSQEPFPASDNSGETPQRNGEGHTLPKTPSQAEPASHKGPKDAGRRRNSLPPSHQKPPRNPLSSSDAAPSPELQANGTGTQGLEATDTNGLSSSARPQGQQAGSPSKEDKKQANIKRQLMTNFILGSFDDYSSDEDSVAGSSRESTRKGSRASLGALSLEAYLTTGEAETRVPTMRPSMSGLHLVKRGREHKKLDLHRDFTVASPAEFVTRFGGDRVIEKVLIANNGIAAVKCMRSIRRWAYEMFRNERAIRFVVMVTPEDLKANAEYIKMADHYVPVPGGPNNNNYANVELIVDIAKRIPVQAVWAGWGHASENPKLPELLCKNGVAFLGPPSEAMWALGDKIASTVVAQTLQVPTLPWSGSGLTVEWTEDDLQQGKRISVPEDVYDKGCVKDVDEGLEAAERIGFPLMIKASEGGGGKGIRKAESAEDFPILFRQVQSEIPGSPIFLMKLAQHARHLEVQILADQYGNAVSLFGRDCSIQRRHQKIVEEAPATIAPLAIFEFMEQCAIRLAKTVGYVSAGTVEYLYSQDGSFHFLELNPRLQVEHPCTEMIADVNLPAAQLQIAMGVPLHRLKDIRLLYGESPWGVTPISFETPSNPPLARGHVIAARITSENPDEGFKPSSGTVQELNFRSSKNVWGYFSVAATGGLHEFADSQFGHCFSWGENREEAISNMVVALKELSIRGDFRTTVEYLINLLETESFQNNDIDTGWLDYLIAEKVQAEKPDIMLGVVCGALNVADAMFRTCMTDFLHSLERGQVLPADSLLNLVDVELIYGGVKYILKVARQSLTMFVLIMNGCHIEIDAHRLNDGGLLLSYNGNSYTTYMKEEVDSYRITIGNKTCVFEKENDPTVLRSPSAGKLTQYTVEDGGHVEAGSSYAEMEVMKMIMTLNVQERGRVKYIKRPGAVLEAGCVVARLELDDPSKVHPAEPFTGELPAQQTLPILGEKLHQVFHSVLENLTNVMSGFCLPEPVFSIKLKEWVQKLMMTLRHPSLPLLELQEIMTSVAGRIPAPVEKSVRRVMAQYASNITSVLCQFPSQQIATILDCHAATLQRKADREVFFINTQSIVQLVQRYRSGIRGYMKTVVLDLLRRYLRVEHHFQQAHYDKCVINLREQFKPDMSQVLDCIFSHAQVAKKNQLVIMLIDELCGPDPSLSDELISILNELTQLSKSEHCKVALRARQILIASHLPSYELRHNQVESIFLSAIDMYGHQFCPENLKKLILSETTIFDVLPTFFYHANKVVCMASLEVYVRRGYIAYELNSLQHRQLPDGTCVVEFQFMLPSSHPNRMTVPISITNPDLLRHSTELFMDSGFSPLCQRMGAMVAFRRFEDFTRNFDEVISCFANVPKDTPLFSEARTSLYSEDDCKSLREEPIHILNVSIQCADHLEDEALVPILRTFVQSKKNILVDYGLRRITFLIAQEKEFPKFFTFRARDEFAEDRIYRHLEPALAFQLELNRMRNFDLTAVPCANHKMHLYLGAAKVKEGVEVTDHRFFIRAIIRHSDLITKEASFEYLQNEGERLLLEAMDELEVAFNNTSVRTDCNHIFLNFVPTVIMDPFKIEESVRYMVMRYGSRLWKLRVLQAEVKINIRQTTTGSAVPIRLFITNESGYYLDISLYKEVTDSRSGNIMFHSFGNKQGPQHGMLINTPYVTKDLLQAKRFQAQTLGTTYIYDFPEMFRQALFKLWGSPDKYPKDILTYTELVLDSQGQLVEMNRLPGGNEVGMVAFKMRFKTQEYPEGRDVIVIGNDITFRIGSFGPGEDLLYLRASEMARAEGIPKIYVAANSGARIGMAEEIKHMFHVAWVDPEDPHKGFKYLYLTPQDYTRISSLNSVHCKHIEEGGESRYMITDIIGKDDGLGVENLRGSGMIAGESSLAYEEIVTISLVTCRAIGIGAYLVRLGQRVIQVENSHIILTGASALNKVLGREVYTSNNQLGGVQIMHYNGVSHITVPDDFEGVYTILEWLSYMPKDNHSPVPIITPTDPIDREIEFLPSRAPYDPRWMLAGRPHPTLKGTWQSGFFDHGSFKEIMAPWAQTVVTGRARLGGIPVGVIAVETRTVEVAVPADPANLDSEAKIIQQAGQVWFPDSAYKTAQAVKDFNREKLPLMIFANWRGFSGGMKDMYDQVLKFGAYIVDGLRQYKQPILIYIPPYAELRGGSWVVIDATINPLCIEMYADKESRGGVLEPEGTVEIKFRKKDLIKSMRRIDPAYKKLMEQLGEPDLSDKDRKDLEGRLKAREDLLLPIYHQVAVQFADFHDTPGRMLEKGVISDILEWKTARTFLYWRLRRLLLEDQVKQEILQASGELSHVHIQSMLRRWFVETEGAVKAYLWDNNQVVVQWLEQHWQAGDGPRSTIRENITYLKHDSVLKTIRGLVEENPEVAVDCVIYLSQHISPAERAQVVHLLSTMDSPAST

SMILES	IC50 [nM]
CC(=O)N[C@@H](C)CO[C@H]1CC[C@H](Oc2ccc3nc(OCC4CC4)sc3c2F)CC1 [Compound I-119]	4
CC(=O)N[C@@H](C)CO[C@H]1CC[C@H](Oc2ccc3nc(OCC4(F)COC4)sc3c2F)CC1 [Compound I-120]	22
CC(=O)N[C@@H](C)CO[C@H]1CC[C@H](Oc2ccc3nc(OCC(F)(F)F)sc3c2F)CC1 [Compound I-121]	9
CC(=O)N[C@@H](C)CO[C@H]1CC[C@H](Oc2ccc3nc(OC(C)C)sc3c2F)CC1 [Compound I-122]	12
CC(=O)N[C@@H](C)CO[C@H]1CC[C@H](Oc2ccc3nc(OCC(F)F)sc3c2F)CC1 [Compound I-123]	15
CC(=O)N[C@@H](C)CO[C@H]1CC[C@H](Oc2ccc3nc(Cl)sc3c2F)CC1 [Compound I-124]	37
CC(=O)N[C@@H](C)CO[C@H]1CC[C@H](Oc2ccc3nc(OC4(C)CC4)sc3c2F)CC1 [Compound I-125]	29
CC(=O)N[C@@H](C)CO[C@H]1C[C@H](COc2cc3sc(C(C)C)nc3cn2)C1 [Compound I-126]	398
CC(=O)N[C@@H](C)CO[C@H]1C[C@H](COc2ccc3nc(C(C)C)sc3c2F)C1 [Compound I-127]	84
CC(=O)N[C@@H](C)CO[C@H]1C[C@H](COc2ccc3nc(C(C)C)sc3c2)C1 [Compound I-128]	50
CC(=O)N[C@@H](C)CO[C@H]1CC[C@H](Oc2ccc3nc(OCC(C)(C)O)sc3c2F)CC1 [Compound I-129]	139
CC(=O)N[C@@H](C)CO[C@H]1CC[C@H](Oc2ccc3nc(OC4COC4)sc3c2F)CC1 [Compound I-130]	57
CC(=O)N[C@@H](C)CO[C@H]1CC[C@H](Oc2ccc3nc(OCC(C)(C)OC4CCCCO4)sc3c2F)CC1 (some centres unmarked) [Compound I-131]	334
CC(=O)N[C@@H](C)CO[C@H]1C[C@H](COc2c(F)cc3nc(C(C)C)sc3c2Cl)C1 [Compound I-132]	48
CC(=O)N[C@@H](C)CO[C@H]1C[C@H](COc2cc3sc(C(C)C)nc3cc2F)C1 [Compound I-133]	77
CC(=O)N[C@@H](C)CO[C@H]1CC[C@H](Oc2ccc3nc(C4(F)COC4)sc3c2F)CC1 [Compound I-134]	23
CC(=O)N[C@@H](C)CO[C@H]1C[C@H](COc2ccc3nc(C(C)C)sc3n2)C1 [Compound I-135]	16
CC(=O)N[C@@H](C)CO[C@H]1C[C@](F)(COc2ccc3nc(C(C)(F)F)sc3c2F)C1 [Compound I-136]	87
CC(=O)N[C@@H](C)CO[C@H]1C[C@](F)(COc2ccc3nc(C(C)(F)F)sc3c2Cl)C1 [Compound I-137]	403
CC(=O)N[C@@H](C)CO[C@H]1C[C@H](COc2ccc3nc(C4(F)CC4)sc3c2F)C1 [Compound I-138]	91
CC(=O)N[C@@H](C)CO[C@H]1C[C@H](COc2ccc3nc(C(C)(F)F)sc3c2)C1 [Compound I-139]	90

SMILES	IC50 [nM]
CC(=O)N[C@@H](C)CO[C@H]1C[C@H](COc2ccc3nc(OC[C@@H](C)F)sc3c2)C1 [Compound I-140]	144
CC(=O)N[C@@H](C)CO[C@H]1C[C@H](COc2c(Cl)cc3nc(C(C)C)sc3c2Cl)C1 [Compound I-141]	80
C[C@@H](CO[C@H]1CC[C@H](Oc2ccc3nc(C(C)(F)F)sc3c2F)CC1)NS(C)(=O)=O [Compound I-142]	181
C[C@@H](CO[C@H]1CC[C@H](Oc2ccc3nc(C(C)(F)F)sc3c2F)CC1)NC(=O)CO [Compound I-143]	120
CC(=O)N[C@@H](C)CO[C@H]1C[C@](F)(COc2ccc3nc(C(C)C)sc3n2)C1 [Compound I-144]	127
CCC(O)(CC)c1nc2ccc(O[C@H]3CC[C@H](OC[C@H](C)NC(C)=O)CC3)c(F)c2s1 [Compound I-145]	190
CC(=O)N[C@@H](C)CO[C@H]1CC[C@H](Oc2ccc3nc(C4(O)CCCC4)sc3c2F)CC1 [Compound I-146]	44
CC(=O)N[C@@H](C)CO[C@H]1C[C@H](COc2ccc3nc(C(C)(F)F)sc3n2)C1 [Compound I-147]	12
CC(=O)N[C@@H](C)CO[C@H]1C[C@H](COc2ccc3nc(C(C)(C)O)sc3c2)C1 [Compound I-148]	404
CC(=O)N[C@@H](C)CO[C@H]1CC[C@H](Oc2ccc3nc(OCC(C)(C)C#N)sc3c2F)CC1 [Compound I-149]	63
CC(=O)N[C@@H](C)CO[C@H]1CC[C@H](Oc2ccc3nc(OCC4(C#N)CC4)sc3c2F)CC1 [Compound I-150]	36
CC(=O)N[C@@H](C)CO[C@H]1C[C@H](COc2ccc3nc(OCC(F)F)sc3c2F)C1 [Compound I-151]	75
CC(=O)N[C@@H](C)CO[C@H]1C[C@H](COc2ccc3nc(OCC(F)(F)F)sc3c2F)C1 [Compound I-152]	64
CC(=O)N[C@@H](C)CO[C@H]1C[C@H](COc2ccc3nc(OC(C)C)sc3c2F)C1 [Compound I-153]	43
CC(=O)N[C@@H](C)CO[C@H]1C[C@H](COc2ccc3nc(OC4CC4)sc3c2F)C1 [Compound I-154]	17
CC(=O)N[C@@H](C)CO[C@H]1C[C@H](COc2ccc3nc(OC4CCC4)sc3c2F)C1 [Compound I-155]	25
CC(=O)N[C@@H](C)CO[C@H]1C[C@H](COc2ccc3nc(Oc4ccc(F)cc4)sc3c2F)C1 [Compound I-156]	12
CCOc1nc2ccc(OC[C@H]3C[C@H](OC[C@H](C)NC(C)=O)C3)nc2s1 [Compound I-157]	3
C[C@@H](CO[C@H]1CC[C@H](Oc2ccc3nc(C(C)(F)F)sc3c2F)CC1)NC(N)=O [Compound I-158]	48
CC(=O)N[C@@H](C)CO[C@H]1C[C@H](COc2cc3sc(C(C)(C)O)nc3cc2F)C1 [Compound I-159]	641
CC(=O)N[C@@H](C)CO[C@H]1C[C@](F)(COc2ccc3nc(C(C)(C)O)sc3c2F)C1 [Compound I-160]	809

SMILES	IC50 [nM]
CC(=O)N[C@@H](C)CO[C@H]1CC[C@H](Oc2ccc3nc(O[C@H]4C[C@H](C#N)C4)sc3c2F)CC1 [Compound I-161]	146
CC(=O)N[C@@H](C)CO[C@H]1CC[C@H](Oc2ccc3nc(O[C@H]4C[C@@H](C#N)C4)sc3c2F)CC1 [Compound I-162]	74
CCOc1nc2ccc(OC[C@]3(F)C[C@@H](OC[C@H](C)NC(C)=O)C3)nc2s1 [Compound I-163]	39
CCOc1nc2cc(F)c(OC[C@]3(F)C[C@@H](OC[C@H](C)NC(C)=O)C3)nc2s1 [Compound I-164]	39
CCOc1nc2cc(F)c(OC[C@H]3C[C@H](OC[C@H](C)NC(C)=O)C3)nc2s1 [Compound I-165]	7
C[C@@H](CO[C@H]1CC[C@H](Oc2ccc3nc(C(C)(F)F)sc3c2F)CC1)NC(=O)C1COC1 [Compound I-166]	30
CC(=O)N[C@@H](C)CO[C@H]1CC[C@H](Oc2ccc3nc(N4CC(C)(C)C4)sc3c2F)CC1 [Compound I-167]	59
CC(=O)N[C@@H](C)CO[C@H]1CC[C@H](Oc2cc3sc(OC(C)CF)nc3cc2Cl)CC1 (some centres unmarked) [Compound I-168]	95
CC(=O)N[C@@H](C)CO[C@H]1C[C@H](COc2ccc3nc(OCC(F)F)sc3n2)C1 [Compound I-169]	10
CC(=O)N[C@@H](C)CO[C@H]1C[C@H](COc2ccc3nc(OCC(F)(F)F)sc3n2)C1 [Compound I-170]	6
CC(=O)N[C@@H](C)CO[C@H]1C[C@H](COc2ccc3nc(C(C)(C)O)sc3n2)C1 [Compound I-171]	152
CC(=O)N[C@@H](C)CO[C@H]1C[C@H](COc2ccc3nc(OC4CC4)sc3n2)C1 [Compound I-172]	13
CC(=O)N[C@@H](C)CO[C@H]1C[C@H](COc2ccc3nc(OC(C)C)sc3n2)C1 [Compound I-173]	5
CC(=O)N[C@@H](C)CO[C@H]1C[C@](F)(COc2cc3sc(C(C)C)nc3cn2)C1 [Compound I-174]	931
CC(=O)N[C@@H](C)CO[C@H]1CC[C@H](Oc2ccc3nc(N4CC(F)(F)C4)sc3c2F)CC1 [Compound I-175]	11
CC(=O)N[C@@H](C)CO[C@H]1CC[C@H](Oc2ccc3nc(N4CCOCC4)sc3c2F)CC1 [Compound I-176]	42
CCOc1nc2ccc(O[C@H]3CC[C@H](OC[C@H](C)NC(C)=O)CC3)cc2s1 [Compound I-177]	6
CCOc1nc2ccc(O[C@H]3CC[C@H](OC[C@H](C)NC(C)=O)CC3)nc2s1 [Compound I-178]	3
CCOc1nc2cnc(O[C@H]3CC[C@H](OC[C@H](C)NC(C)=O)CC3)cc2s1 [Compound I-179]	28
CC(=O)N[C@@H](C)CO[C@H]1C[C@H](COc2nc3sc(OCC(F)F)nc3cc2F)C1 [Compound I-180]	21

From US10150728B2, “Alkylene derivatives” (Shionogi & Co., Ltd., priority 2013, dated 2018)
